Assay results taken from PubChem BioAssay AID1745844 (Carcinogenic Potency Database (CPDB), 2022).
Values joined by “and” are separate entries in the source; they are usually repeats but may differ in a detail not shown here. Equal values may be shown once. Active and inactive are the calls of the source. The rule behind the calls is not given here.

Test system: rodent lifetime carcinogenesis bioassay, tumor incidence TD50
Assay: chronic cancer bioassays in animals – CPDB, compiled studies (AID 1745844)

Cc1cc(O)c2c(c1)C(=O)c1cc(O)cc(O)c1C2=O
TD50 (mouse, strain B6C3F1, females, in feed, site: any site (literature study), lesion: several types, types named in the paper, dosed 104 weeks, study length 104 weeks): 548 mg/kg/day (inactive)
TD50 (mouse, strain B6C3F1, females, in feed, site: lung, lesion: alveolar/bronchiolar adenoma + alveolar/bronchiolar carcinoma, dosed 104 weeks, study length 104 weeks): 65800 mg/kg/day
TD50 (mouse, strain B6C3F1, males, in feed, site: kidney, lesion: tubule adenoma + tubule carcinoma, dosed 104 weeks, study length 104 weeks): 965 mg/kg/day and 885 mg/kg/day
TD50 (rat, strain Fischer 344, females, in feed, site: Zymbal's gland, lesion: carcinoma, dosed 104 weeks, study length 104 weeks): 1970 mg/kg/day
TD50 (rat, strain Fischer 344, females, in feed, site: any site (literature study), lesion: several types, types named in the paper, dosed 104 weeks, study length 104 weeks): 797 mg/kg/day
TD50 (rat, strain Fischer 344, females, in feed, site: liver, lesion: hepatocellular adenoma + hepatoblastoma + hepatocellular carcinoma, dosed 104 weeks, study length 104 weeks): 4300 mg/kg/day
carcinogen call (rat, strain Fischer 344, males, in feed, site: any site (literature study), lesion: several types, types named in the paper, dosed 104 weeks, study length 104 weeks): negative (inactive)

Oc1cccc(O)c1
TD50 (mouse, strain B6C3F1, females, by gavage, site: any site (literature study), lesion: several types, types named in the paper, dosed 104 weeks, study length 104 weeks): 1880 mg/kg/day (inactive)
TD50 (mouse, strain B6C3F1, females, by gavage, site: liver, lesion: hepatocellular adenoma + hepatocellular carcinoma + neoplastic nodule, dosed 104 weeks, study length 104 weeks): 1560 mg/kg/day
TD50 (mouse, strain B6C3F1, females, by gavage, site: lung, lesion: alveolar/bronchiolar adenoma + alveolar/bronchiolar carcinoma, dosed 104 weeks, study length 104 weeks): 1350 mg/kg/day
carcinogen call (mouse, strain B6C3F1, males, by gavage, site: any site (literature study), lesion: several types, types named in the paper, dosed 104 weeks, study length 104 weeks): negative (inactive)
TD50 (mouse, strain B6C3F1, males, by gavage, site: lung, lesion: alveolar/bronchiolar adenoma + alveolar/bronchiolar carcinoma, dosed 104 weeks, study length 104 weeks): 6800 mg/kg/day
TD50 (rat, strain Fischer 344, females, by gavage, site: any site (literature study), lesion: several types, types named in the paper, dosed 103 weeks, study length 104 weeks): 219 mg/kg/day (inactive)
TD50 (rat, strain Fischer 344, males, by gavage, site: any site (literature study), lesion: several types, types named in the paper, dosed 103 weeks, study length 104 weeks): 213 mg/kg/day
TD50 (rat, strain Fischer 344, males, by gavage, site: testis, lesion: interstitial-cell adenoma, dosed 103 weeks, study length 104 weeks): 84 mg/kg/day (inactive)

ClCc1ccccc1
TD50 (mouse, strain B6C3F1, females, by gavage, site: forestomach, lesion: carcinoma, dosed 104 weeks, study length 107 weeks): 445 mg/kg/day
TD50 (mouse, strain B6C3F1, females, by gavage, site: forestomach, lesion: several types, types named in the paper, dosed 104 weeks, study length 107 weeks): 81 mg/kg/day
TD50 (mouse, strain B6C3F1, females, by gavage, site: lung, lesion: several types, types named in the paper, dosed 104 weeks, study length 107 weeks): 337 mg/kg/day
TD50 (mouse, strain B6C3F1, males, by gavage, site: all sites, lesion: all vascular tumors, dosed 104 weeks, study length 107 weeks): 454 mg/kg/day
TD50 (mouse, strain B6C3F1, males, by gavage, site: forestomach, lesion: carcinoma, dosed 104 weeks, study length 107 weeks): 221 mg/kg/day
TD50 (mouse, strain B6C3F1, males, by gavage, site: forestomach, lesion: several types, types named in the paper, dosed 104 weeks, study length 107 weeks): 49.6 mg/kg/day
TD50 (mouse, strain B6C3F1, males, by gavage, site: liver, lesion: several types, types named in the paper, dosed 104 weeks, study length 107 weeks): 225 mg/kg/day
TD50 (rat, strain Fischer 344, females, by gavage, site: liver, lesion: neoplastic nodule, dosed 104 weeks, study length 107 weeks): 330 mg/kg/day
TD50 (rat, strain Fischer 344, females, by gavage, site: thyroid gland, lesion: several types, types named in the paper, dosed 104 weeks, study length 107 weeks): 40.6 mg/kg/day

[O]=[Mo](=[O])=[O]
TD50 (mouse, strain B6C3F1, females, inhaled, site: liver, lesion: hepatocellular adenoma + hepatoblastoma + hepatocellular carcinoma, dosed 105 weeks, study length 105 weeks): 4450 mg/kg/day
TD50 (mouse, strain B6C3F1, females, inhaled, site: lung, lesion: alveolar/bronchiolar adenoma + alveolar/bronchiolar carcinoma, dosed 105 weeks, study length 105 weeks): 68.3 mg/kg/day
TD50 (mouse, strain B6C3F1, females, inhaled, site: lung, lesion: alveolar/bronchiolar adenoma, dosed 105 weeks, study length 105 weeks): 97.8 mg/kg/day
TD50 (mouse, strain B6C3F1, females, inhaled, site: subcutaneous tissue, lesion: sarcoma, dosed 105 weeks, study length 105 weeks): 162 mg/kg/day
TD50 (mouse, strain B6C3F1, males, inhaled, site: liver, lesion: hepatocellular adenoma + hepatoblastoma + hepatocellular carcinoma, dosed 105 weeks, study length 105 weeks): 11.7 mg/kg/day
TD50 (mouse, strain B6C3F1, males, inhaled, site: liver, lesion: hepatocellular carcinoma, dosed 105 weeks, study length 105 weeks): 14.8 mg/kg/day
TD50 (mouse, strain B6C3F1, males, inhaled, site: lung, lesion: alveolar/bronchiolar adenoma + alveolar/bronchiolar carcinoma, dosed 105 weeks, study length 105 weeks): 3.21 mg/kg/day
TD50 (mouse, strain B6C3F1, males, inhaled, site: lung, lesion: alveolar/bronchiolar carcinoma, dosed 105 weeks, study length 105 weeks): 4.15 mg/kg/day
TD50 (rat, strain Fischer 344, females, inhaled, site: any site (literature study), lesion: several types, types named in the paper, dosed 105 weeks, study length 105 weeks): 14 mg/kg/day
TD50 (rat, strain Fischer 344, females, inhaled, site: clitoral gland, lesion: adenoma + carcinoma, dosed 105 weeks, study length 105 weeks): 5.04 mg/kg/day
TD50 (rat, strain Fischer 344, females, inhaled, site: mammary gland, lesion: adenoma + fibroadenoma, dosed 105 weeks, study length 105 weeks): 0.77 mg/kg/day (inactive)
TD50 (rat, strain Fischer 344, males, inhaled, site: liver, lesion: hepatocellular adenoma + hepatoblastoma + hepatocellular carcinoma, dosed 105 weeks, study length 105 weeks): 128 mg/kg/day
TD50 (rat, strain Fischer 344, males, inhaled, site: lung, lesion: alveolar/bronchiolar adenoma + alveolar/bronchiolar carcinoma, dosed 105 weeks, study length 105 weeks): 21.8 mg/kg/day
TD50 (rat, strain Fischer 344, males, inhaled, site: lung, lesion: alveolar/bronchiolar adenoma, dosed 105 weeks, study length 105 weeks): 31.6 mg/kg/day

CC(O)CCl (stereo not drawn)
carcinogen call (mouse, strain B6C3F1, females, in drinking water, site: any site (literature study), lesion: several types, types named in the paper, dosed 105 weeks, study length 105 weeks): negative (inactive)
TD50 (mouse, strain B6C3F1, females, in drinking water, site: liver, lesion: hepatocellular adenoma + hepatoblastoma + hepatocellular carcinoma, dosed 105 weeks, study length 105 weeks): 1040 mg/kg/day
carcinogen call (mouse, strain B6C3F1, males, in drinking water, site: any site (literature study), lesion: several types, types named in the paper, dosed 104 weeks, study length 104 weeks): negative (inactive)
carcinogen call (rat, strain Fischer 344, females, in drinking water, site: any site (literature study), lesion: several types, types named in the paper, dosed 104 weeks, study length 104 weeks): negative (inactive)
TD50 (rat, strain Fischer 344, females, in drinking water, site: liver, lesion: hepatocellular adenoma + hepatoblastoma + hepatocellular carcinoma, dosed 104 weeks, study length 104 weeks): 707 mg/kg/day
carcinogen call (rat, strain Fischer 344, males, in drinking water, site: any site (literature study), lesion: several types, types named in the paper, dosed 104 weeks, study length 104 weeks): negative (inactive)
TD50 (rat, strain Fischer 344, males, in drinking water, site: liver, lesion: hepatocellular adenoma + hepatoblastoma + hepatocellular carcinoma, dosed 104 weeks, study length 104 weeks): 427 mg/kg/day

CC(O)COC(C)(C)C (stereo not drawn)
TD50 (mouse, strain B6C3F1, females, inhaled, site: any site (literature study), lesion: several types, types named in the paper, dosed 104 weeks, study length 104 weeks): 8120 mg/kg/day
TD50 (mouse, strain B6C3F1, females, inhaled, site: liver, lesion: hepatocellular adenoma + hepatoblastoma + hepatocellular carcinoma, dosed 104 weeks, study length 104 weeks): 1780 mg/kg/day
TD50 (mouse, strain B6C3F1, females, inhaled, site: liver, lesion: hepatocellular adenoma + hepatocellular carcinoma, dosed 104 weeks, study length 104 weeks): 1780 mg/kg/day
TD50 (mouse, strain B6C3F1, females, inhaled, site: liver, lesion: hepatocellular adenoma, dosed 104 weeks, study length 104 weeks): 1780 mg/kg/day
TD50 (mouse, strain B6C3F1, males, inhaled, site: any site (literature study), lesion: several types, types named in the paper, dosed 104 weeks, study length 104 weeks): 7930 mg/kg/day
TD50 (mouse, strain B6C3F1, males, inhaled, site: liver, lesion: hepatoblastoma, dosed 104 weeks, study length 104 weeks): 9320 mg/kg/day
TD50 (mouse, strain B6C3F1, males, inhaled, site: liver, lesion: hepatocellular adenoma + hepatoblastoma + hepatocellular carcinoma, dosed 104 weeks, study length 104 weeks): 1980 mg/kg/day
TD50 (mouse, strain B6C3F1, males, inhaled, site: liver, lesion: hepatocellular adenoma + hepatocellular carcinoma, dosed 104 weeks, study length 104 weeks): 1980 mg/kg/day
TD50 (mouse, strain B6C3F1, males, inhaled, site: liver, lesion: hepatocellular adenoma, dosed 104 weeks, study length 104 weeks): 1970 mg/kg/day
carcinogen call (rat, strain Fischer 344, females, inhaled, site: any site (literature study), lesion: several types, types named in the paper, dosed 104 weeks, study length 104 weeks): negative (inactive)
TD50 (rat, strain Fischer 344, females, inhaled, site: liver, lesion: hepatocellular adenoma + hepatoblastoma + hepatocellular carcinoma, dosed 104 weeks, study length 104 weeks): 10500 mg/kg/day
TD50 (rat, strain Fischer 344, males, inhaled, site: any site (literature study), lesion: several types, types named in the paper, dosed 104 weeks, study length 104 weeks): 683 mg/kg/day
TD50 (rat, strain Fischer 344, males, inhaled, site: kidney, lesion: tubule adenoma + tubule carcinoma, dosed 104 weeks, study length 104 weeks): 2280 mg/kg/day and 2650 mg/kg/day
TD50 (rat, strain Fischer 344, males, inhaled, site: kidney, lesion: tubule adenoma, dosed 104 weeks, study length 104 weeks): 4480 mg/kg/day and 3800 mg/kg/day
TD50 (rat, strain Fischer 344, males, inhaled, site: liver, lesion: hepatocellular adenoma + hepatoblastoma + hepatocellular carcinoma, dosed 104 weeks, study length 104 weeks): 1450 mg/kg/day
TD50 (rat, strain Fischer 344, males, inhaled, site: liver, lesion: hepatocellular adenoma, dosed 104 weeks, study length 104 weeks): 1450 mg/kg/day
TD50 (rat, strain Fischer 344, males, inhaled, site: skin, lesion: basal-cell adenoma + basal-cell carcinoma, dosed 104 weeks, study length 104 weeks): 1510 mg/kg/day
TD50 (rat, strain Fischer 344, males, inhaled, site: skin, lesion: basal-cell adenoma, dosed 104 weeks, study length 104 weeks): 2070 mg/kg/day
